Reference: US12286418B2, “Compounds and methods for treating or preventing bacterial infections” (priority 2019, dated 2025)

Columns and labels:
E. coli MG1655 = experiment: Accumulation assay in E. coli (LC-MS/MS); assay type: cell-based; settings: wildtype E. coli MG1655, 10 minutes incubation
Experimental: For the accumulation assay, the protocol from Richter, et al., 2017, Nature 545:299-304 was followed. An overnight culture of bacteria grown in LB Lennox, was inoculated into fresh media and grown to an OD600 of 0.5-0.6. Cells were pelleted, resuspended in 1× phosphate-buffered saline (PBS) and then incubated with the compound of interest for 10 minutes at 37°. After incubation, the OD600 was recorded to note if compounds affected cell growth and then the cultures were centrifuged down through a 9:1 mixture of silicone oil (viscosity=20 cST) to high temperature silicone oil which was cooled at −80°. Cell pellets were isolated and lysed by 3 cycles of freeze-thawing using liquid nitrogen and a 65° water bath. The cell lysate was isolated from the cell debris (in water and methanol) and then analyzed via mass spectrometry. […] Multiple reaction monitoring (MRM) was used to quantify these compounds. […] The concentrations of these compounds were calculated on the basis of their corresponding standard curves.
To determine the colony forming units (CFU) per mL based on the OD600, the OD600 of E. coli MG1655 culture in LB-Lennox was measured then the culture was diluted and plated to count colonies. Based on this, the CFU per mL for 1 O.D.600 (for MG1655 cells grown in LB-Lennox) was determined to be approximately 2.15×10^8 and this value was used for accumulation calculations. […]

OXA-24 = biological target: T1, OXA-24 (Acinetobacter baumannii, UniProt Q8RLA6); experiment: Inhibition of other OXA enzymes (nitrocefin reporter): OXA-24; assay type: biochemical
T1 construct: His-tag (N, cleaved yes); made in house; host or cells: E. coli BL21 (DE3), pET28a
T1 sequence (Q8RLA6 entry or part of it): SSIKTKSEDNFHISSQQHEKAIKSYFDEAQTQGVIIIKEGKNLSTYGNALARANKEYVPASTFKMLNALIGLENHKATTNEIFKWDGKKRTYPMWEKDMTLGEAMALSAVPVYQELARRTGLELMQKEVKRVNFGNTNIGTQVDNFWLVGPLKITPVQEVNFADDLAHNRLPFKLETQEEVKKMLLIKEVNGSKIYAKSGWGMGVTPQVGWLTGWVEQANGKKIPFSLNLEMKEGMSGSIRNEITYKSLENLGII
Experimental: Compounds were tested for inhibition of a given OXA enzyme from hydrolyzing nitrocefin using a Tecan plate reader. […] A control with no compound was included in each run. For each compound concentration, the velocity of nitrocefin hydrolysis was determined at 482 nm and fit to the Morrison equation. […] The average Ki of separate experiments, each of which consisted of duplicate runs, is reported and error was quantified as the standard deviation.
The high sequence diversity of class D β-lactamases has made it difficult to find a class-wide inhibitor. The inhibition activity of CDD-97 was tested against other OXA-enzymes of varying sequence identity, to assess its spectrum of activity (Table 2). OXA-10 is regarded as the canonical OXA, however it is not a major clinical threat as it mainly hydrolyzes penicillins. OXA-58 is another carbapenemase unable to hydrolyze extended-spectrum cephalosporins like OXA-48. Both OXA-48 and OXA-58 are predominantly found in gram-negative bacteria, however OXA-48 is prevalent in the Enterobacteriaceae family (mainly Klebsiella pneumoniae), while OXA-58 is found in the Moraxellaceae family (mainly Acintobacter baumannii). While K. pneumoniae is more rampant in the clinics and most OXA-mediated carbapenem is due to OXA-48, A. baumannii nosocomial infections are a growing issue. OXA-163 is an OXA-48 like enzyme also prevalent in Enterobacteriaceae. […]

CCOc1ccccc1N1CCN(c2ncnc(N3CCC(C(=O)O)CC3)n2)CC1 [CDD-97, 1-(4-(4-(2-ethoxyphenyl)piperazin-1-yl)-1,3,5-triazin-2-yl)piperidine-4-carboxylic acid]
accumulation in cells, fold lower levels compared to tetracycline (E. coli MG1655): 20 fold | Ki (OXA-24): 14 ± 1 µM
